In ChEMBL document CHEMBL1201862, “PubChem BioAssay data set” (2004):
The source made the active and inactive calls.

Legend:
[1] = target: Tyrosine-protein kinase JAK3 (Homo sapiens, UniProt P52333); assay type: functional
[2] = target: BDNF/NT-3 growth factors receptor (Homo sapiens, UniProt Q16620); assay type: functional;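 further: NTRK2 measured as one member of a broad kinome-wide kinase profiling panel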
[3] = target: Calcium/calmodulin-dependent protein kinase type II subunit alpha (Homo sapiens, UniProt Q9UQM7); assay: Navigating the Kinome. Panel member name: CAMK2A; assay type: functional
Calcium/calmodulin-dependent protein kinase type II subunit alpha, sequence (Q9UQM7 whole entry): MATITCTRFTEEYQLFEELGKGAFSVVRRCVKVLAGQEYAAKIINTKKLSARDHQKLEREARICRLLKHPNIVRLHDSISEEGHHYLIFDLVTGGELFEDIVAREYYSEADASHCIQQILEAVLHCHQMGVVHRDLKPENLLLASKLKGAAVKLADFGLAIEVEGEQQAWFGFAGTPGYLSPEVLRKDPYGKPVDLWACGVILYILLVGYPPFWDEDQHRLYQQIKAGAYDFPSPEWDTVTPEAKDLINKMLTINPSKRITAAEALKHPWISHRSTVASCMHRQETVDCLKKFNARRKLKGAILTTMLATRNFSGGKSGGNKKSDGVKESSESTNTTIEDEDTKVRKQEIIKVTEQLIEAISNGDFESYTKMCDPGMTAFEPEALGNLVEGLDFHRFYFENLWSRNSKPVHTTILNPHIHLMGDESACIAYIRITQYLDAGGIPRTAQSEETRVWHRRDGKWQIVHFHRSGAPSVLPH

[4] = tested on: Escherichia coli; assay: microbe, parasite or virus in culture
[5] = target: T1, Mannose-6-phosphate isomerase (Homo sapiens, UniProt P34949); assay: MPI enzyme activity inhibition – biochemical, fluorescence intensity, coupled assay, primary screen (AID 1209)
T1 sequence (P34949 whole entry): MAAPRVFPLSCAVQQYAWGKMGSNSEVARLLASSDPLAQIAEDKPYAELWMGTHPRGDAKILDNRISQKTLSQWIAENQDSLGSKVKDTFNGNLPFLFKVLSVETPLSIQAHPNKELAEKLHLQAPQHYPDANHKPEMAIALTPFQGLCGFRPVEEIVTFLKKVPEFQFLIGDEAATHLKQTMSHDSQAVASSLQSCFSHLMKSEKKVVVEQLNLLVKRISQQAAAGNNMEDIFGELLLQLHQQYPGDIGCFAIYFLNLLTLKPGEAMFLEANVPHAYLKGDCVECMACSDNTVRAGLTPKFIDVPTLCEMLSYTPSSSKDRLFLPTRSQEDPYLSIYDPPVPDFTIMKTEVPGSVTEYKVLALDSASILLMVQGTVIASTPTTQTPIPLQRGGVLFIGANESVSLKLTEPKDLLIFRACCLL

[6] = target: T1, Mannose-6-phosphate isomerase; assay: phosphomannose isomerase inhibition – biochemical, fluorescence intensity, confirmation (AID 1535)
[7] = target: T2, Phosphomannomutase 2 (Homo sapiens, UniProt O15305); assay: Counter screen SAR assay for PMM2 inhibitors via a fluorescence intensity assay. [Related pubchem assays (depositor defined):AID1545, AID1574]
T2 sequence (O15305 whole entry): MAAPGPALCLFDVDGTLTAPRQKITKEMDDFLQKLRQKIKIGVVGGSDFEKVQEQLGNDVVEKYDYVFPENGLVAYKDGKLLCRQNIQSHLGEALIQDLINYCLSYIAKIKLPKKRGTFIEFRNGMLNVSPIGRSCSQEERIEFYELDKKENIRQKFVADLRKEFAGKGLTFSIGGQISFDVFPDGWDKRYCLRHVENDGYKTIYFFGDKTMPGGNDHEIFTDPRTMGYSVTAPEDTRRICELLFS

[8] = target: Intestinal-type alkaline phosphatase (Mus musculus, UniProt P24822); assay: PubChem AID 488785; assay type: functional
[9] = target: T3, Alkaline phosphatase, tissue-nonspecific isozyme (Homo sapiens, UniProt P05186); assay: TNAP enzyme inhibition by screening hits, dose response, selectivity assay for mouse IAP inhibitor project, biochemical, human TNAP, uHTS hits (AID 488906); assay type: functional
T3 sequence (P05186 whole entry): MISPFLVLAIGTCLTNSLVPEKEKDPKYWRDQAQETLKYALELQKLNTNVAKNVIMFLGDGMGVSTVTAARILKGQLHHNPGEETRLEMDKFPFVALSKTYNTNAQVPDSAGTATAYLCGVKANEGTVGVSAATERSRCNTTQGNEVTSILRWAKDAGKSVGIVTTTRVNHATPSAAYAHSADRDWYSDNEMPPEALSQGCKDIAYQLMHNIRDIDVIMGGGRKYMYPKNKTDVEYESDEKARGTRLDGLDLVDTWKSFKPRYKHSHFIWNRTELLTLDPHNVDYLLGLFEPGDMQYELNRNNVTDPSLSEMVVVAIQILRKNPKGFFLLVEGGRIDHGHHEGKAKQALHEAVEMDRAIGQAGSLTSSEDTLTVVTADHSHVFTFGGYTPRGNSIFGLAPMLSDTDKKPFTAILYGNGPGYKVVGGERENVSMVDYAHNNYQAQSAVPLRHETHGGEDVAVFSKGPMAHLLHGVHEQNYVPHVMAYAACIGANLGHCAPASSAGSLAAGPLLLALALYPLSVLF

[10] = target: Intestinal-type alkaline phosphatase (Homo sapiens, UniProt P09923); assay: inhibition of human intestinal alkaline phosphatase – biochemical, dose response (AID 488876); assay type: functional
Intestinal-type alkaline phosphatase (Homo sapiens, UniProt P09923), sequence (P09923 whole entry): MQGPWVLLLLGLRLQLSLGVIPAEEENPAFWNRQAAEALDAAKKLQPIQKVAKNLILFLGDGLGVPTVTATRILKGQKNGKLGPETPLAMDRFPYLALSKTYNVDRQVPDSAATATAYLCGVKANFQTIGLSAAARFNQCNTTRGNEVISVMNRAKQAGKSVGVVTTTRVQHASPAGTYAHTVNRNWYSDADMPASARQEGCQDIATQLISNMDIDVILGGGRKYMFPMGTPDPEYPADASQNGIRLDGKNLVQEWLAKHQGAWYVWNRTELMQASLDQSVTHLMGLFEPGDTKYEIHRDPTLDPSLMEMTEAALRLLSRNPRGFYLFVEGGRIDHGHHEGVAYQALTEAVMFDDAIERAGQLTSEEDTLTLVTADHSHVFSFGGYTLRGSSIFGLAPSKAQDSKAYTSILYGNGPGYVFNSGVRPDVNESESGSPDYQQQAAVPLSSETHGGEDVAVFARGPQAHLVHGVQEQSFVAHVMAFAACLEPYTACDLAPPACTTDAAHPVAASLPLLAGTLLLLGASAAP

[11] = tested on: HEK293; assay: cells; assay type: functional, cell-based; settings: Homo sapiens
[12] = target: T4, Nuclear receptor subfamily 0 group B member 1 (Homo sapiens, UniProt P51843); assay: Luminescence-based cell-based high throughput dose response assay for inhibitors of the orphan nuclear receptor subfamily 0, group B, member 1 (DAX1; NR0B1). [Related pubchem assays (depositor defined):AID504766, AID504790]; assay type: functional
T4 sequence (P51843 whole entry): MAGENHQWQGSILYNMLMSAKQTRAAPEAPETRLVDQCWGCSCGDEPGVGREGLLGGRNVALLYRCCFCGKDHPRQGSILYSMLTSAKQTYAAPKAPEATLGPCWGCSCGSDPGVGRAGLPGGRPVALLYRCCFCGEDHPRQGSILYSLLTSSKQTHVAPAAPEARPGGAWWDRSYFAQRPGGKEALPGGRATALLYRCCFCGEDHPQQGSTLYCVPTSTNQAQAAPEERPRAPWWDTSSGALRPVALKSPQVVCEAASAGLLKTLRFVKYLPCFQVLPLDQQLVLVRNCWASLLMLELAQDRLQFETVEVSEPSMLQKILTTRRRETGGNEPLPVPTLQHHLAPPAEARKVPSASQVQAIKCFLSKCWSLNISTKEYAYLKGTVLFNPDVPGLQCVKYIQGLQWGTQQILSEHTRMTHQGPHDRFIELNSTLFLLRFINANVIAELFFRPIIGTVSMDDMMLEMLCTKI

[13] = target: Dual specificity protein kinase CLK1 (Homo sapiens, UniProt P49759); assay: inhibition of human CLK1 activity – biochemical, cherry-picked samples, selectivity assay for Dyrk1A inhibitor project, dose response (AID 588811)
Dual specificity protein kinase CLK1, sequence (P49759 whole entry): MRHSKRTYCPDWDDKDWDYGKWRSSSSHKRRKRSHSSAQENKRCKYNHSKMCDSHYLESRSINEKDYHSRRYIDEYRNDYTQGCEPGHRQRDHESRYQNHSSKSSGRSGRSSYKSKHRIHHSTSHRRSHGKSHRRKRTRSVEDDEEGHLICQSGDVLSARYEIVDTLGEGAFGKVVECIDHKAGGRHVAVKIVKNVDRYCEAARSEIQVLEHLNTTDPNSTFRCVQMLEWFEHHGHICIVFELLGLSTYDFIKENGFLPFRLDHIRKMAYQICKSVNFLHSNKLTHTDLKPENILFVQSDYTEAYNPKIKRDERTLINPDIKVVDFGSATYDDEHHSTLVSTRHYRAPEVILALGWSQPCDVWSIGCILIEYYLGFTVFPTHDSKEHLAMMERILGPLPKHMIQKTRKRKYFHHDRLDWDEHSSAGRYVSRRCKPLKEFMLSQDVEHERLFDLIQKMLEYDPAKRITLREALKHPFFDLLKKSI

[14] = target: Glycogen synthase kinase-3 alpha (Homo sapiens, UniProt P49840); assay type: functional;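 further: GSK3A result taken from a broad kinome-wide kinase panel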
Glycogen synthase kinase-3 alpha, sequence (P49840 whole entry): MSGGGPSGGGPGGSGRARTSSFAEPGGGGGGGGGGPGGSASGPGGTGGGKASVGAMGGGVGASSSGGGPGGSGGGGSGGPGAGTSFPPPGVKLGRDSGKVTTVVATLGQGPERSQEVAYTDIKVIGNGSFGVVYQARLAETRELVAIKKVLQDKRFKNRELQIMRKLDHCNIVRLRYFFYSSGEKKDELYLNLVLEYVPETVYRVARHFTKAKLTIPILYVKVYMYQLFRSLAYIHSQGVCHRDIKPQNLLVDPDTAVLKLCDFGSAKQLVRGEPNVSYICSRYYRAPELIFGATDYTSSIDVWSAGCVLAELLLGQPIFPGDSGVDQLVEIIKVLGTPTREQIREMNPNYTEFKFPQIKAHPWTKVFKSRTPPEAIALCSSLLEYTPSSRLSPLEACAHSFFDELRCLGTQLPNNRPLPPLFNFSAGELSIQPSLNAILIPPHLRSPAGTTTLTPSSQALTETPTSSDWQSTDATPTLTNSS

[15] = target: Calcium/calmodulin-dependent protein kinase type II subunit beta (Homo sapiens, UniProt Q13554); assay type: functional
Calcium/calmodulin-dependent protein kinase type II subunit beta, sequence (Q13554 whole entry): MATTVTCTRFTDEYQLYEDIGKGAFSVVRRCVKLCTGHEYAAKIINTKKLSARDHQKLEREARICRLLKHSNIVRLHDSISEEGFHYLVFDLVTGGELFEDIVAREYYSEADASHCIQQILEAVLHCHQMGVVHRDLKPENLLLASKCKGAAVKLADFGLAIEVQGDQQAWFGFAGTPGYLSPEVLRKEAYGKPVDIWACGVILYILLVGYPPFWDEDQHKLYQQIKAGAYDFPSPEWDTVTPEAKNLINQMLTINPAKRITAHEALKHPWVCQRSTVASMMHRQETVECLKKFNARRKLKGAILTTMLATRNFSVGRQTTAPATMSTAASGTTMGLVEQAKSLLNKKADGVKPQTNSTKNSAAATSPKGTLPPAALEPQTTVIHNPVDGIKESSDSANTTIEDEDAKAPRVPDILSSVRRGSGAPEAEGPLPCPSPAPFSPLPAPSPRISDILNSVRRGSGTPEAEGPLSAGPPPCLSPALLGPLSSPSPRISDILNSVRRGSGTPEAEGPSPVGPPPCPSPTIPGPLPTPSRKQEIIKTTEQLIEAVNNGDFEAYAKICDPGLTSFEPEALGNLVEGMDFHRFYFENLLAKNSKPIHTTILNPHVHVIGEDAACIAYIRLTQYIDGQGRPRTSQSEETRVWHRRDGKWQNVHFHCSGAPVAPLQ

[16] = target: Glycogen synthase kinase-3 beta (Homo sapiens, UniProt P49841); assay type: functional;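 further: value comes from a broad kinome profiling panel, with GSK3B as the panel member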
Glycogen synthase kinase-3 beta, sequence (P49841 whole entry): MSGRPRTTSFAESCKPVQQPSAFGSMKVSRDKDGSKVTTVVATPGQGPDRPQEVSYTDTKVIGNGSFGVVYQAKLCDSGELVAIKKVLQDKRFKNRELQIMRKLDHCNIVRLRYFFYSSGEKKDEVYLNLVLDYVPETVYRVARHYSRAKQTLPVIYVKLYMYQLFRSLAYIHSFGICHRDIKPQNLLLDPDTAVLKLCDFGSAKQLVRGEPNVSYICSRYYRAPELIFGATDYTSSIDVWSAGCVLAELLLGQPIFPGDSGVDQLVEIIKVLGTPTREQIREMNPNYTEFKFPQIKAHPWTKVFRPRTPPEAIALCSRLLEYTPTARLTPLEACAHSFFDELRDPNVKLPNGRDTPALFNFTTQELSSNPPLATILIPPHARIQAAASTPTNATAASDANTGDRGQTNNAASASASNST

[17] = target: Dual specificity tyrosine-phosphorylation-regulated kinase 1A (Homo sapiens, UniProt Q13627); assay type: functional;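 further: measured against DYRK1A as one member of a broad kinome profiling panel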
[18] = tested on: HEK293; assay: inhibition of NOD1-driven NF-kB reporter – cell-based, luminescence, uHTS, primary screen (AID 1578); assay type: functional; settings: Homo sapiens
[19] = tested on: HEK293; assay: cells; assay type: functional, cell-based; settings: Homo sapiens; remark: listed apart in the source
[20] = tested on: HEK293; assay: cells; assay type: functional, cell-based; settings: Homo sapiens; remark: listed apart in the source
[21] = tested on: HEK293; assay: NOD2 signaling inhibitors in MDP-stimulated cells, cell-based, uHTS, luminescence (AID 2001); assay type: functional; settings: Homo sapiens
[22] = tested on: HEK293; assay: cells; assay type: functional, cell-based; settings: Homo sapiens; remark: listed apart in the source
[23] = tested on: HEK293; assay: cells; settings: Homo sapiens

BDNF/NT-3 growth factors receptor, sequence (Q16620 whole entry): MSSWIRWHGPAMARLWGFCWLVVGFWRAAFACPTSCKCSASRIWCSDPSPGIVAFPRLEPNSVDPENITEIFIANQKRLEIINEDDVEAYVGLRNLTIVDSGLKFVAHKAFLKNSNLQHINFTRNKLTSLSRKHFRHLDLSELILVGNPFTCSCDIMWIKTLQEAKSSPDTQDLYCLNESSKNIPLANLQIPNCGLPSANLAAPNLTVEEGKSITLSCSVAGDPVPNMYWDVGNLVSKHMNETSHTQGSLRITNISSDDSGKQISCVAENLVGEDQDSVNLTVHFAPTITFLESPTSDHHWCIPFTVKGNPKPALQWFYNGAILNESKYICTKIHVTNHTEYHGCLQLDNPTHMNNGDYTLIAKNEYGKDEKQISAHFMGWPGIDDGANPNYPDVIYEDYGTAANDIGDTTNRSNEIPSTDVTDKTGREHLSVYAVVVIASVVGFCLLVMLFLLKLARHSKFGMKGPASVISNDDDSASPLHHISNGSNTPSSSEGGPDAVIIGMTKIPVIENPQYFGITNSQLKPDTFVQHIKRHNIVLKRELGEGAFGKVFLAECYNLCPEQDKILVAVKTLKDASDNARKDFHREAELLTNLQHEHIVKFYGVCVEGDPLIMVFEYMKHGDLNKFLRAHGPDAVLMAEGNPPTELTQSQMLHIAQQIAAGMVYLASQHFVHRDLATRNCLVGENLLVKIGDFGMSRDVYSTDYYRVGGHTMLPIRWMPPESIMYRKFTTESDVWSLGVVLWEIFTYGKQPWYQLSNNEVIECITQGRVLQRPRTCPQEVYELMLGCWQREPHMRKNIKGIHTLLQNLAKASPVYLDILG
Tyrosine-protein kinase JAK3, sequence (P52333 whole entry): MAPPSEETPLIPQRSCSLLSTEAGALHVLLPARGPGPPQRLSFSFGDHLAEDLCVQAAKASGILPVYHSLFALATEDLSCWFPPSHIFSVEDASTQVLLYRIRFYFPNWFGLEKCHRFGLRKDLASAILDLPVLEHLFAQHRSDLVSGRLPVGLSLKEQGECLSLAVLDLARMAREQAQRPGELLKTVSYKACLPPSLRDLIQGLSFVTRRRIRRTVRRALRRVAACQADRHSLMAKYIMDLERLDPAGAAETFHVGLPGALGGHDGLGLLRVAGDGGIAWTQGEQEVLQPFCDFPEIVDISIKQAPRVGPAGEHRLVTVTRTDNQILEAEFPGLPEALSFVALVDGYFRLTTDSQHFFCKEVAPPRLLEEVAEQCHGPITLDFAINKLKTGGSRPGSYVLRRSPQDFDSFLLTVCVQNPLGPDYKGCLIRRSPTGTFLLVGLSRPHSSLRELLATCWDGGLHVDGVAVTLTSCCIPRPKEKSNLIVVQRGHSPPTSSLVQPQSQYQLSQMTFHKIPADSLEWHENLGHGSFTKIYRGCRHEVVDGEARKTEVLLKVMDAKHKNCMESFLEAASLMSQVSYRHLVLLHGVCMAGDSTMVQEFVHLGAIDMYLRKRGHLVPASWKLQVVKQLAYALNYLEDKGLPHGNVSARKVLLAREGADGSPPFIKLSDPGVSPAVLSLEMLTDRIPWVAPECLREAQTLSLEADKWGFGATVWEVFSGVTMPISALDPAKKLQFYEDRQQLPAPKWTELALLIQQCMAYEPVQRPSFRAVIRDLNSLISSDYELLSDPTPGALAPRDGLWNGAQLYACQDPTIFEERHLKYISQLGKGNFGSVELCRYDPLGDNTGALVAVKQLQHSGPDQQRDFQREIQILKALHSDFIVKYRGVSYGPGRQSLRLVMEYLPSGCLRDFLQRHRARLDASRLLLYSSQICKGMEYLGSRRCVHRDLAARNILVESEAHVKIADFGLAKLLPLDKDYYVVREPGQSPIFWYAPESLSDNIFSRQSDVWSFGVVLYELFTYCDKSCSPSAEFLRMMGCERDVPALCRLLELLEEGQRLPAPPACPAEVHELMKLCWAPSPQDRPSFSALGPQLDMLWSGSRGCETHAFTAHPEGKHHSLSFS

Clc1cccc(Nc2nc(N3CCOCC3)nc(-n3cccn3)n2)c1
Ki [1]: 3.16 µM (active)
Ki [2]: 3.16 µM (active)
Ki [3]: 2.51 µM (active)

Cc1ccc(C(=O)N2CCCC(CCC(=O)NCc3ccc(F)c(F)c3)C2)cn1 (stereo not drawn)
AC50 [4]: 33.1 µM (active)

O=C(CSc1nc[nH]n1)CSc1nc[nH]n1
IC50 [5]: 12.7 µM (active)
IC50 [6]: > 50 µM (inactive)
IC50 [7]: > 100 µM (inactive)
IC50 [8]: 0.373 µM (active)
IC50 [9]: 8.85 µM (active)
IC50 [10]: 7.33 µM (active)

O=C(NCc1ccco1)/C(=C\C=C\c1ccccc1)NC(=O)c1ccco1
IC50 [11]: > 67.5 µM (inactive)
IC50 [12]: > 67.5 µM (inactive)

Cc1ccsc1CNc1ncnc2ccc(-c3ccc4c(c3)OCO4)cc12
AC50 [13]: 0.00994 µM (active)

O=C1CN=C(c2cccc(Cl)c2)c2c(sc3c2CCCC3)N1
Ki [14]: 3.98 µM (active)
Ki [15]: 6.31 µM (active)
Ki [16]: 3.16 µM (active)
Ki [17]: 2.51 µM (active)

Cc1oc(-c2ccccc2Cl)nc1CSc1nc(O)c2c(n1)CCCC2
EC50 [18]: 8.45 µM (active)
IC50 [19]: 19.5 µM (active)
IC50 [20]: > 20 µM (inactive)
IC50 [21]: 7.49 µM (active)
IC50 [22]: > 20 µM (inactive)
IC50 [23]: > 20 µM (inactive)
